For the assay, the target named is T1, mutant EGFR (T790M, L858R) (Homo sapiens, UniProt P00533, L858R/T790M).
T1 construct: The EGFR constructs span amino acids R669 to V1011 of the EGFR protein; made in house; host or cells: E. coli derived from BL21 (T7 phage) for most assays; remaining kinases in HEK-293 cells
Put plainly: In vitro kinase assay (phage/DNA-tagged kinase competition binding, qPCR readout), mutant EGFR. Conditions: for Binding Affinity ratio of WT/DM: ratio of Kd EGFR (WT) to Kd EGFR (L858R, T790M) double mutant. Here is the method: For most assays, kinase-tagged T7 phage strains were prepared in an E. coli host derived from the BL21 strain. For the EGFR assays, wild-type EGFR, or mutant EGFR (T790M, L858R) were utilized. The EGFR constructs span amino acids R669 to V1011 of the EGFR protein. E. coli were grown to log-phase and infected with T7 phage and incubated with shaking at 32° C. until lysis. The lysates were centrifuged and filtered to remove cell debris. The remaining kinases were produced in HEK-293 cells and subsequently tagged with DNA for qPCR detection. Streptavidin-coated magnetic beads were treated with biotinylated small molecule ligands for 30 minutes at room temperature to generate affinity resins for kinase assays. The liganded beads were blocked with excess biotin and washed with blocking buffer (SeaBlock (Pierce), 1% BSA, 0.05% Tween 20, 1 mM DTT) to remove unbound ligand and to reduce non-specific binding. Binding reactions were assembled by combining kinases, liganded affinity beads, and test compounds in 1× binding buffer (20% SeaBlock, 0.17×PBS, 0.05% Tween 20, 6 mM DTT). Test compounds were prepared as 111× stocks in 100% DMSO. Kds were determined using an 11-point 3-fold compound dilution series with three DMSO control points. All compounds for Kd measurements are distributed by acoustic transfer (non-contact dispensing) in 100% DMSO. The compounds were then diluted directly into the assays such that the final concentration of DMSO was 0.9%. All reactions performed in polypropylene 384-well plate. Each was a final volume of 0.02 ml. The assay plates were incubated at room temperature with shaking for 1 hour and the affinity beads were washed with wash buffer (1×PBS, 0.05% Tween 20). The beads were then re-suspended in elution buffer (1×PBS, 0.05% Tween 20, 0.5 μM nonbiotinylated affinity ligand) and incubated at room temperature with shaking for 30 minutes. The kinase concentration in the eluates was measured by qPCR.

Where only a bound is given, the exact number is not on record here.

T1 sequence (P00533 669-1011 T790M/L858R): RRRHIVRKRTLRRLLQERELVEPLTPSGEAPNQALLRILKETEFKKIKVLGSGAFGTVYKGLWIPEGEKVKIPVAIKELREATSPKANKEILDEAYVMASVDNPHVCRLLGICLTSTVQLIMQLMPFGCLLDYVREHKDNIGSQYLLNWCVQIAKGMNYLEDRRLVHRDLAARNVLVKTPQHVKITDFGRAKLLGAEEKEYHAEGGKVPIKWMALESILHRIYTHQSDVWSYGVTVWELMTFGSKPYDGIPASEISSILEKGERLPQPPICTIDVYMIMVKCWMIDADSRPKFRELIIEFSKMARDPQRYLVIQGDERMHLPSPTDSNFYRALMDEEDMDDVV

As for `C=CC(=O)N[C@@H]1CN(c2nc(Nc3cn(CCCNC(=O)CN4CCN5CCN6CCN(CC4)CC(=O)[O][Lu]([O]C(=O)C5)[O]C(=O)C6)nc3OC)c3ncn(C)c3n2)C[C@H]1F` [Compound 001-Lu], the “Binding Affinity ratio of WT/DM” value is on record as “A (4 < A ≤ 25)”.
Usually Kd stands for the concentration at which binding is half-saturated. `C=CC(=O)N[C@@H]1CN(c2nc(Nc3cn(CCCCCNC(=O)CN4CCN(CC(=O)O)CCN(CC(=O)O)CCN(CC(=O)O)CC4)nc3OC)c3ncn(C)c3n2)C[C@H]1F` [Compound 002, 2-[4,7-bis(carboxymethyl)-10-[2-[5-[4-[[2-[(3R,4R)-3-fluoro-4-(prop-2-enoylamino)pyrrolidin-1-yl]-9-methyl-purin-6-yl]amino]-3-methoxy-pyrazol-1-yl]pentylamino]-2-oxo-ethyl]-1,4,7,10-tetrazacyclododec-1-yl]acetic acid]: the “Binding Affinity ratio of WT/DM” value was “A (4 < A ≤ 25)”. Also, the Kd (EGFR construct R669 to V1011, 11-point 3-fold dilution series, 1 hour at room temperature) was under 1 nM.
Turning to `C=CC(=O)N[C@@H]1CN(c2nc(Nc3cn(CCCCCNC(=O)CN4CCN5CCN6CCN(CC4)CC(=O)[O][Lu]([O]C(=O)C5)[O]C(=O)C6)nc3OC)c3ncn(C(C)(C)C)c3n2)C[C@H]1F` [Compound 004-Lu], the “Binding Affinity ratio of WT/DM” value is recorded as “B (25 < B ≤ 100)”.
The same measure, in the same setting: to `C=CC(=O)N[C@@H]1CN(c2nc(Nc3cn(CCCCCNC(=O)CN4CCN5CCN6CCN(CC4)CC(=O)[O][Lu]([O]C(=O)C5)[O]C(=O)C6)nc3CC)c3ncn(C(C)(C)C)c3n2)C[C@H]1F` [Compound 005-Lu] belongs “C (100 < C ≤ 1000)”; to `C=CC(=O)N1C[C@H](COc2nc(Nc3cnn(CCCCCNC(=O)CN4CCN5CCN6CCN(CC4)CC(=O)[O][Lu]([O]C(=O)C5)[O]C(=O)C6)c3)nc3[nH]cc(Cl)c23)[C@@H](OC)C1` [Compound 007-Lu, N-[5-[4-[[5-chloro-4-[[(3R,4R)-4-methoxy-1-prop-2-enoyl-pyrrolidin-3-yl]methoxy]-7H-pyrrolo[2,3-d]pyrimidin-2-yl]amino]pyrazol-1-yl]pentyl]-2-(3,16,19-trioxo-2,17,18-trioxa-5,8,11,14-tetraza-1λ3-lutetatricyclo[9.6.3.25,14]docosan-8-yl) acetamide], “C (100 < C ≤ 1000)”.

Values taken from patent US20250057997A1, “CONJUGATES COMPRISING COVALENT BINDERS FOR TARGETING INTRACELLULAR PROTEINS” (RayzeBio, Inc., priority 2021, published 2025).
